The values below come from patent publication US20240247252A1, “NOVEL COMPOUNDS FOR THE DEVELOPMENT OF REVERSIBLE COVALENT DRUGS” (The Trustees of Boston College, priority 2023, published 2024).

Positions of bridges follow the written chain, without caps; N, C: chain ends. Non-standard residues stand in square brackets, D forms with d. Residues, ends and D or L forms follow the SMILES beside them. *: point of attachment. X1 = O=Cc1ccccc1NCc1cc(C(=O)*)ccc1B(O)O; X2 = CC(=O)c1ccc(OCC(=O)*)cc1B(O)O; Dap = NC[C@H](N)C(=O)O

For assay [1], the target named is T1, sortase A (SrtA) (Staphylococcus aureus, UniProt Q2FV99). In words: biochemical. It counts as binding. How it is done:
For peptide conjugation, a —COOH derivative of RMR1 and 2-APBA was synthesized respectively. […] The resulting peptides were assessed for SrtA binding through a fluorescence polarization-based competition assay, in which a fluorophore labeled W7 (W7-F) was used as a reporter.

Assay [2] addresses T1, sortase A (SrtA). Nature of the assay: SrtA binding kinetics, competition assay using W7-F as fluorescence reporter. How it is done: FIG. 1 illustrates reversible covalent inhibition of SrtA. […] The peptide's termini and the proximal lysine residues are labeled with the lysine ε-amines colored blue. […] FIG. 1(d) and FIG. 1(e) show SrtA binding kinetics of P3 and P5 recorded via a competition assay using W7-F as a fluorescence reporter.
Kinetic characterization of the P5-SrtA binding yielded a kon of 6.3 M^−1 s^−1, which is ˜300 times faster than the RMR1-lysine conjugation. The koff was determined to be 8.2×10^−6 s^−1, 4 times slower than the RMR1-lysine conjugation. The faster on-rate and slower off-rate are expected for the cooperative action between the covalent warhead and the W7 peptide that binds SrtA noncovalently.

For assay [3], the system named is SrtA on live S. aureus cells. Nature of the assay: SrtA inhibition on live S. aureus cells, labeling by fluorescent SrtA substrate FAM-GSLPETGGS, flow cytometry. The class given is cell-based, Staphylococcus aureus. Particulars: live S. aureus in LB media, read-out: IC50 of SrtA-mediated fluorescence labeling. The procedure: The peptides for SrtA inhibition on live S. aureus cells was further tested. A fluorescently labeled SrtA substrate (FAM-GSLPETGGS) was mixed with S. aureus in LB media with or without a peptide inhibitor. The SrtA-mediated bacterial labeling was assessed using fluorescence microscopy and flow cytometry.
(In flow cytometry, cells or beads pass a laser one at a time.)

The subject of assay [4] is SrtA on live S. aureus cells. Nature of the assay: Long-lasting SrtA inhibition on S. aureus cells after washing away unbound inhibitor. It counts as cell-based, Staphylococcus aureus. The settings on record: unbound inhibitor washed away before substrate added, flow cytometry after 6 hours of incubation. The procedure: To test this hypothesis, the S. aureus cells was treated with P5 and then the unbound inhibitor was washed away before the fluorescent SrtA substrate was added. The S. aureus cells were subjected to flow cytometry analysis after 6 hours of incubation.

T1 sequence (Q2FV99 whole entry): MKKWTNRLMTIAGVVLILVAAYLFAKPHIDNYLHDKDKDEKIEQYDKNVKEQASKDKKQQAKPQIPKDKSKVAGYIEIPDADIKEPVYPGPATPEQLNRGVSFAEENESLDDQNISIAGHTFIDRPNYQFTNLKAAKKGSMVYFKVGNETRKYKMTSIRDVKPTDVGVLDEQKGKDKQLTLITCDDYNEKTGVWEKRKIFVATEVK

As for `CC[C@H](C)[C@@H]1NC(=O)[C@H](CC(C)C)NC(=O)[C@@H](NC(=O)[C@H](C)NC(C)=O)CSSC[C@@H](C(=O)NCC(=O)NCC(=O)NCC(=O)N[C@@H](CNC(=O)c2ccc(B(O)O)c(CNc3ccccc3C=O)c2)C(N)=O)NC(=O)CNC(=O)CNC(=O)[C@H](Cc2c[nH]c3ccccc23)NC(=O)[C@H]([C@@H](C)O)NC(=O)[C@@H]2CCCN2C1=O` [Compound P5] (Ac-ACLIPTWGGCGGG[Dap](X1)-NH2; disulfide 2-10), in assay [1], the IC50 worked out at 1.3 µM. In assay [2], the koff came out at 8.2e-06 s⁻¹; the “koff, times slower than the RMR1-lysine conjugation” value is 4 times; the on-rate constant (kon) came to 6.3 M⁻¹ s⁻¹; the “kon, times faster than the RMR1-lysine conjugation” value is reported as approximately 300 times.
The compound `CC[C@H](C)[C@@H]1NC(=O)[C@H](CC(C)C)NC(=O)[C@@H](NC(=O)[C@H](C)N)CSSC[C@@H](C(N)=O)NC(=O)CNC(=O)CNC(=O)[C@H](Cc2c[nH]c3ccccc23)NC(=O)[C@H]([C@@H](C)O)NC(=O)[C@@H]2CCCN2C1=O` [Compound W7] (H-ACLIPTWGGC-NH2; disulfide 2-10) gave a 50% inhibitory concentration (IC50) in assay [1] of 17 µM.
As for `CC[C@H](C)[C@@H]1NC(=O)[C@H](CC(C)C)NC(=O)[C@@H](NC(=O)[C@H](C)N)CSSC[C@@H](C(=O)NCC(=O)NCC(=O)NCC(=O)N[C@@H](CNC(=O)COc2ccc(C(C)=O)c(B(O)O)c2)C(N)=O)NC(=O)CNC(=O)CNC(=O)[C@H](Cc2c[nH]c3ccccc23)NC(=O)[C@H]([C@@H](C)O)NC(=O)[C@@H]2CCCN2C1=O` [Compound P3] (H-ACLIPTWGGCGGG[Dap](X2)-NH2; disulfide 2-10), the IC50 in assay [1] was 4.6 µM; in assay [3], 3.7 µM. Moreover, in assay [2], the “SrtA binding kinetics in words” value is listed as “reached equilibrium instantaneously”. Also, the “inhibition of SrtA-mediated fluorescence labeling after washing” value in assay [4] was “marginal reduction”.
Consider `CC[C@H](C)[C@@H]1NC(=O)[C@H](CC(C)C)NC(=O)[C@@H](NC(=O)[C@H](C)NC(=O)CNC(=O)CNC(=O)CNC(=O)COc2ccc(C(C)=O)c(B(O)O)c2)CSSC[C@@H](C(N)=O)NC(=O)CNC(=O)CNC(=O)[C@H](Cc2c[nH]c3ccccc23)NC(=O)[C@H]([C@@H](C)O)NC(=O)[C@@H]2CCCN2C1=O` [Compound P7] (X2-GGGACLIPTWGGC-NH2; disulfide 5-13), for which the IC50 in assay [1] turned out to be 4.5 µM.
Still for that read-out and setting: to `CC[C@H](C)[C@@H]1NC(=O)[C@H](CC(C)C)NC(=O)[C@@H](NC(=O)[C@H](C)NC(=O)CNC(=O)CNC(=O)CNC(=O)c2ccc(B(O)O)c(CNc3ccccc3C=O)c2)CSSC[C@@H](C(N)=O)NC(=O)CNC(=O)CNC(=O)[C@H](Cc2c[nH]c3ccccc23)NC(=O)[C@H]([C@@H](C)O)NC(=O)[C@@H]2CCCN2C1=O` [Compound P8] (X1-GGGACLIPTWGGC-NH2; disulfide 5-13) belongs 3.8 µM.

As a reminder, the IC50 is the midpoint of a concentration-inhibition curve. The koff is a measure of how fast the partners let go of each other. High values mean fast dissociation, low ones slow dissociation. The kon is the second-order rate constant of association. High values mean fast association, low ones slow association.
